Assays:
Assay type in all cases: in vivo
Alopecurus myosuroides = test: Post-emergence herbicidal action against ALOMY; conditions: 20 g a.i./ha, visual rating about 3 weeks after treatment
Experimental: (§1) Post-Emergence Herbicidal Action Against Harmful Plants and Crop Plant Compatibility Seeds of monocotyledonous and dicotyledonous weeds and crop plants are placed in sandy loam in plastic or wood-fibre pots, covered with soil and cultivated in a greenhouse under controlled growth conditions. 2 to 3 weeks after sowing, the test plants are treated at the one-leaf stage. The compounds of the invention, formulated in the form of wettable powders (WP) or as emulsion concentrates (EC), are then sprayed onto the green parts of the plants as aqueous suspension or emulsion with addition of 0.5% additive at a water application rate of 600 l/ha (converted). After the test plants have been kept in the greenhouse under optimum growth conditions for about 3 weeks, the activity of the preparations is rated visually in comparison to untreated controls. For example, 100% activity=the plants have died, 0% activity=like control plants. [table]

Avena fatua = test: Post-emergence herbicidal action against AVEFA; conditions: 20 g a.i./ha, visual rating about 3 weeks after treatment
Experimental: as §1

DIGSA = test: Post-emergence herbicidal action against DIGSA; conditions: 20 g a.i./ha, visual rating about 3 weeks after treatment
Experimental: as §1, with “plants.” for “plants. [table]”

Echinochloa crus-galli = test: Post-emergence herbicidal action against ECHCG; conditions: 20 g a.i./ha, visual rating about 3 weeks after treatment
Experimental: as §1

Lolium rigidum = test: Post-emergence herbicidal action against LOLRI; conditions: 20 g a.i./ha, visual rating about 3 weeks after treatment
Experimental: as §1

Abutilon theophrasti = test: Post-emergence herbicidal action against ABUTH; conditions: 20 g a.i./ha, visual rating about 3 weeks after treatment
Experimental: as §1

Amaranthus retroflexus = test: Post-emergence herbicidal action against AMARE; conditions: 20 g a.i./ha
Experimental: as §1

Polygonum convolvulus = test: Post-emergence herbicidal action against POLCO; conditions: 20 g a.i./ha
Experimental: as §1

Veronica persica = test: Post-emergence herbicidal action against VERPE; conditions: 20 g a.i./ha
Experimental: as §1

Setaria viridis = test: Post-emergence herbicidal action against SETVI; conditions: 20 g a.i./ha, visual rating about 3 weeks after treatment
Experimental: as §1

Pharbitis purpurea = test: Post-emergence herbicidal action against PHBPU; conditions: 20 g a.i./ha
Experimental: as §1

SMILES	Herbicidal action against [%] ALOMY (Alopecurus myosuroides)	Herbicidal action against [%] AVEFA (Avena fatua)	Herbicidal action against [%] DIGSA (DIGSA)	Herbicidal action against [%] ECHCG (Echinochloa crus-galli)	Herbicidal action against [%] LOLRI (Lolium rigidum)	Herbicidal action against [%] ABUTH (Abutilon theophrasti)	Herbicidal action against [%] AMARE (Amaranthus retroflexus)	Herbicidal action against [%] POLCO (Polygonum convolvulus)	Herbicidal action against [%] VERPE (Veronica persica)	Herbicidal action against [%] SETVI (Setaria viridis)	Herbicidal action against [%] PHBPU (Pharbitis purpurea)
C=CCSCCOC(=O)C1C=CC(NC(=O)C2(OC)CC(c3cc(F)cc(F)c3)=NO2)C1 (centres unmarked) [Example I-26]	90%	90%	90%	80%	90%	80%	80%	80%	80%	–	–
COC1(C(=O)NC2C=CC(C(=O)OCCSC(F)(F)F)C2)CC(c2cc(F)cc(F)c2)=NO1 (centres unmarked) [Example I-21]	90%	80%	80%	90%	100%	80%	–	80%	90%	80%	–
COC1(C(=O)NC2C=CC(C(=O)OCCSC(C)C)C2)CC(c2cc(F)cc(F)c2)=NO1 (centres unmarked) [Example I-25]	90%	90%	90%	80%	90%	80%	80%	80%	80%	90%	80%
C=CC1(C(=O)NC2C=CC(C(=O)OCCSC)C2)CC(c2cc(F)cc(C#N)c2)=NO1 (centres unmarked) [Example I-39]	90%	90%	90%	90%	90%	80%	80%	80%	90%	90%	80%
CSCCOC(=O)C1C=CC(NC(=O)C2(C)CC(c3cc(C)cc(Cl)c3)=NO2)C1 (centres unmarked) [Example I-75]	90%	80%	90%	90%	–	80%	–	–	80%	90%	80%
C=CC1(C(=O)NC2C=CC(C(=O)OCCSC)C2)CC(c2cccc(F)c2)=NO1 (centres unmarked) [Example I-35]	90%	90%	90%	90%	90%	–	80%	90%	80%	90%	80%
CCS(=O)(=O)CCOC(=O)C1C=CC(NC(=O)C2(C)CC(c3cc(F)cc(F)c3)=NO2)C1 (centres unmarked) [Example I-01]	90%	90%	90%	90%	100%	90%	90%	90%	80%	90%	80%
CC1(C(=O)NC2C=CC(C(=O)OCCSCc3ccc(F)cc3)C2)CC(c2cc(F)cc(F)c2)=NO1 (centres unmarked) [Example I-09]	90%	90%	90%	90%	90%	80%	90%	80%	90%	90%	80%
